Results on 31 compounds are retold here after patent US10005767B2, “Compositions and methods for inhibition of the JAK pathway” (Rigel Pharmaceuticals, Inc., priority 2009, dated 2018).

Counter-ions that a name gives are not always drawn.

For one experiment, the system named is human primary T-cells, IL-2 stimulated proliferation (JAK-1 and JAK-3 dependent; reported as JAK3 activity). The experiment can be described thus: Human primary T-cell proliferation stimulated by IL-2 (Example 3). The format is cell-based. Particulars: Homo sapiens, T-cell, tested under conditions described in Example 3 (IL-2 stimulated human primary T-cell proliferation); read-out: ability to inhibit JAK3 activity, IC50 range (Table V). An outline of the steps:
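Peripheral-blood human T-cells pre-activated via TCR/CD28, IL-2-starved overnight, then cultured 72 h at 37 °C with compound in Yssel's medium containing IL-2 (80 U/mL in cell suspension). Proliferation read as viable-cell ATP by CellTiter-Glo luminescence; reduction versus control taken as JAK pathway inhibition.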
The term IC50 denotes the point on the concentration scale where inhibition reaches its midpoint. Consider `Cc1cnc(Nc2cc(C)c(F)c(C)c2)nc1Nc1cc(F)c2oc(=O)[nH]c2c1` [Compound I-490, 7-fluoro-5-(2-(4-fluoro-3,5-dimethylphenylamino)-5-methylpyrimidin-4-ylamino)benzo[d]oxazol-2(3H)-one], for which the IC50 is under 500 nM.
The same measure, in the same setting: the value for `Cc1cnc(Nc2ccc(N3CCN(C(=O)OC(C)(C)C)[C@@H](C)C3)nc2)nc1Nc1ccc2oc(=O)[nH]c2c1` [II-41, (S)-2-Methyl-4-{5-[5-methyl-4-(2-oxo-2,3-dihydro-benzooxazol-5-ylamino)-pyrimidin-2-ylamino]-pyridin-2-yl}-piperazine-1-carboxylic acid tert-butyl ester] was under 500 nM; that for `Cc1cnc(Nc2ccc(N3CCCN(C)CC3)nc2)nc1Nc1ccc2oc(=O)[nH]c2c1` [II-3, N4-(benzo[d]oxazol-2(3H)-on-5-yl)-N2-(6-(4-methyl-1,4-diazepan-1-yl)pyridin-3-yl)-5-methylpyrimidine-2,4-diamine] was under 500 nM.
Same read-out and setting: the same measure for `COc1ccc(Nc2ncc(C)c(Nc3ccc4oc(=O)[nH]c4c3)n2)cn1` [II-123, N2-(2-methoxypyridin-5-yl)-5-methyl-N4-(2-oxo-2,3-dihydro-1,3-benzoxazol-5-yl)-2,4-pyrimidinediamine]: under 500 nM.
Regarding `Cc1cnc(Nc2ccc3c(c2)CN(O)C3)nc1Nc1ccc2oc(=O)[nH]c2c1` [III-2, N4-(benzo[d]oxazol-2(3H)-on-5-yl)-N2-(2-hydroxyisoindolin-5-yl)-5-methylpyrimidine-2,4-diamine], the IC50 was under 500 nM.
Still for that read-out and setting: the value for `Cc1cnc(Nc2cccc(C(F)(F)F)c2)nc1Nc1ccc2oc(=O)[nH]c2c1` [Compound I-158, 5-[5-Methyl-2-(3-trifluoromethyl-phenylamino)-pyrimidin-4-ylamino]-3H-benzooxazol-2-one] was under 500 nM; that for `CC(=O)c1cc(Nc2ncc(C)c(Nc3ccc4oc(=O)[nH]c4c3)n2)cc(C(F)(F)F)c1` [Compound I-445, 5-(2-(3-acetyl-5-(trifluoromethyl)phenylamino)-5-methylpyrimidin-4-ylamino)benzo[d]oxazol-2(3H)-one] was under 500 nM; that for `CCCn1c(=O)oc2ccc(Nc3nc(Nc4ccc(N5CCN(C)CC5)nc4)ncc3C)cc21` [II-4, N4-(3-n-propylbenzo[d]oxazol-2(3H)-on-5-yl)-N2-(6-(4-methylpiperazin-1-yl)pyridin-3-yl)-5-methylpyrimidine-2,4-diamine] was under 500 nM.
Turning to `Cc1cnc(Nc2ccc3c(c2)N(C)C(=O)CCC3)nc1Nc1ccc2oc(=O)[nH]c2c1` [IV-30, 5-(5-methyl-2-(1-methyl-2-oxo-2,3,4,5-tetrahydro-1H-benzo[b]azepin-8-ylamino)pyrimidin-4-ylamino)benzo[d]oxazol-2(3H)-one], the IC50 was under 500 nM.
The same measure, in the same setting: the value for `Cc1cnc(Nc2ccc3c(c2)CN(CCC(C)C)C3)nc1Nc1ccc2oc(=O)[nH]c2c1` [III-9, N4-(benzo[d]oxazol-2(3H)-on-5-yl)-N2-(2-isopentylisoindolin-5-yl)-5-methylpyrimidine-2,4-diamine] was under 500 nM; that for `Cc1cnc(Nc2cc(C(C)N3CCC3)cc(C(F)(F)F)c2)nc1Nc1ccc2oc(=O)[nH]c2c1` (stereo not shown) [Compound I-464, 5-(2-(3-(1-(azetidin-1-yl)ethyl)-5-(trifluoromethyl)phenylamino)-5-methylpyrimidin-4-ylamino)benzo[d]oxazol-2(3H)-one] was under 500 nM; that for `Cc1cnc(Nc2ccc(N3CCC(C)CC3)nc2)nc1Nc1ccc2oc(=O)[nH]c2c1` [II-6, N4-(benzo[d]oxazol-2(3H)-on-5-yl)-N2-(6-(4-methylpiperidin-1-yl)pyridin-3-yl)-5-methylpyrimidine-2,4-diamine] was over 10000 nM.
Consider `Cc1cnc(Nc2cc(C(C)N3CCCC3)cc(C(F)(F)F)c2)nc1Nc1ccc2oc(=O)[nH]c2c1` (stereo not shown) [Compound I-463, 5-(5-methyl-2-(3-(1-(pyrrolidin-1-yl)ethyl)-5-(trifluoromethyl)phenylamino)pyrimidin-4-ylamino)benzo[d]oxazol-2(3H)-one], for which the IC50 was under 500 nM.
On the same count and under the same terms, the same measure for `Cc1ccc(Nc2ncc(C)c(Nc3ccc4oc(=O)[nH]c4c3)n2)cc1C#N` [Compound I-131, 2-Methyl-5-[5-methyl-4-(2-oxo-2,3-dihydro-benzooxazol-5-ylamino)-pyrimidin-2-ylamino]-benzonitrile]: under 500 nM; for `COc1c(C)cc(Nc2ncc(C)c(Nc3ccc4oc(=O)[nH]c4c3)n2)cc1Cl` [Compound I-265, 5-(2-(3-chloro-4-methoxy-5-methylphenylamino)-5-methylpyrimidin-4-ylamino)benzo[d]oxazol-2(3H)-one]: under 500 nM; for `COc1ccc(Nc2ncc(C)c(Nc3cc(F)c4oc(=O)[nH]c4c3)n2)cc1C` [Compound I-431, 7-fluoro-5-(2-(4-methoxy-3-methylphenylamino)-5-methylpyrimidin-4-ylamino)benzo[d]oxazol-2(3H)-one]: under 500 nM.
`CCN(CC)C(C)c1cccc(Nc2ncc(C)c(Nc3ccc4oc(=O)[nH]c4c3)n2)c1` (stereo not shown) [Compound I-216, 5-(2-(3-(1-(diethylamino)ethyl)phenylamino)-5-methylpyrimidin-4-ylamino)benzo[d]oxazol-2(3H)-one]: the IC50 was under 500 nM.
Same read-out and setting: the value for `Cc1cnc(Nc2ccc(OCCCN(C)C)c(C(F)(F)F)c2)nc1Nc1ccc2oc(=O)[nH]c2c1` [Compound I-404, 5-{2-[4-(3-Dimethylamino-propoxy)-3-trifluoromethyl-phenylamino]-5-methyl-pyrimidin-4-ylamino}-3H-benzooxazol-2-one] was under 500 nM.

Still in this experiment, the particulars now being: tested under conditions described in Example 3 (IL-2 stimulated human primary T-cell proliferation); read-out: ability to inhibit JAK3 activity, IC50 range (Table V).
For the compound `Cc1cnc(Nc2ccc(OCCCO)nc2)nc1Nc1ccc2oc(=O)[nH]c2c1` [II-148, N2-[2-(3-hydroxy)propoxypyridin-5-yl]-5-methyl-N4-(2-oxo-2,3-dihydro-1,3-benzoxazol-5-yl)-2,4-pyrimidinediamine], the 50% inhibitory concentration (IC50) was 500 to 5000 nM.
`Cc1cnc(Nc2ccc(NC(=O)c3ccccc3)cc2)nc1Nc1ccc2oc(=O)[nH]c2c1` [Compound I-308, 5-methyl-N4-(2-oxo-2,3-dihydro-1,3-benzoxazol-5-yl)-N2-(4-phenylcarbonylamino)phenyl-2,4-pyrimidinediamine]: the 50% inhibitory concentration (IC50) is under 500 nM.
The same measure, in the same setting: the value for `Cc1cc(C)cc(Nc2ncc(C)c(Nc3ccc4oc(=O)[nH]c4c3)n2)c1` [Compound I-302, N2-(3,5-dimethyl)phenyl-5-methyl-N4-(2-oxo-2,3-dihydro-1,3-benzoxazol-5-yl)-2,4-pyrimidinediamine] was under 500 nM; that for `Cc1cnc(Nc2ccc(C#N)c(C(F)(F)F)c2)nc1Nc1ccc2oc(=O)[nH]c2c1` [Compound I-303, N2-(4-cyano-3-trifluoromethyl)phenyl-5-methyl-N4-(2-oxo-2,3-dihydro-1,3-benzoxazol-5-yl)-2,4-pyrimidinediamine] was under 500 nM; that for `Cc1cnc(Nc2cc(F)cc(C(F)(F)F)c2)nc1Nc1ccc2oc(=O)[nH]c2c1` [Compound I-162, 5-[2-(3-Fluoro-5-trifluoromethyl-phenylamino)-5-methyl-pyrimidin-4-ylamino]-3H-benzooxazol-2-one triflouroacetate salt] was over 10000 nM.
For `Cn1c(=O)n(C)c2cc(Nc3nc(Nc4ccc(NS(C)(=O)=O)cc4)ncc3F)ccc21` [Compound I-43, N4-(1,3-dimethylbenzimidazolin-2-on-5-yl)-N2-((4-methylsulfonylamino)phenyl)-5-fluoropyrimidine-2,4-diamine], the 50% inhibitory concentration (IC50) lay within 500 to 5000 nM.
The same measure, in the same setting: the value for `COc1cc(Nc2ncc(C)c(Nc3ccc4oc(=O)n(COP(=O)(O)O)c4c3)n2)cc(C(F)(F)F)c1` [Compound I-357, N2-(3-methoxy-5-trifluoromethyl)phenyl-5-methyl-N4-[3-(phosphonooxy)methyl-2-oxo-2,3-dihydro-1,3-benzoxazol-5-yl]-2,4-pyrimidinediamine] was 500 to 5000 nM.
Same read-out and setting: the same measure for `Cc1cnc(Nc2ccc(OCCO)nc2)nc1Nc1ccc2oc(=O)[nH]c2c1` [II-142, N2-[2-(2-hydroxy)ethoxypyridin-5-yl]-5-methyl-N4-(2-oxo-2,3-dihydro-1,3-benzoxazol-5-yl)-2,4-pyrimidinediamine]: under 500 nM; for `Cc1cnc(Nc2cc(C)c(F)c(C)c2)nc1Nc1ccc2oc(=O)n(COP(=O)(OC(C)(C)C)OC(C)(C)C)c2c1` [Compound I-450, N4-{3-[bis(1,1-dimethylethoxy)]phosphinyloxymethyl-2-oxo-2,3-dihydro-1,3-benzoxazol-5-yl}-N2-(3,5-dimethyl-4-fluoro)phenyl-5-methyl-2,4-pyrimidinediamine]: over 10000 nM; for `Cc1cnc(Nc2ccc(F)c(Cl)c2)nc1Nc1ccc2oc(=O)[nH]c2c1` [Compound I-399, N2-(3-chloro-4-fluoro)phenyl-5-methyl-N4-(2-oxo-2,3-dihydro-1,3-benzoxazol-5-yl)-2,4-pyrimidinediamine]: under 500 nM.
On the same count and under the same terms, the same measure for `COc1cc(Nc2ncc(C)c(Nc3ccc4oc(=O)[nH]c4c3)n2)cc(OC)c1OC` [Compound I-119, N4-(benzo[d]oxazol-2(3H)-on-5-yl)-N2-(3,4,5-trimethoxy)phenyl-5-methylpyrimidine-2,4-diamine]: under 500 nM; for `Cc1cnc(Nc2cc(Cl)cc(OC(F)(F)F)c2)nc1Nc1ccc2oc(=O)[nH]c2c1` [Compound I-378, N2-(3-chloro-5-trifluoromethoxy)phenyl-5-methyl-N4-(2-oxo-2,3-dihydro-1,3-benzoxazol-5-yl)-2,4-pyrimidinediamine]: under 500 nM.
With `Cc1cnc(Nc2cccc(C(=O)N3CCN(C)CC3)c2)nc1Nc1ccc2oc(=O)[nH]c2c1` [Compound I-321, 5-methyl-N2-[3-(4-methylpiperazin-1-yl)carbonyl]phenyl-N4-(2-oxo-2,3-dihydro-1,3-benzoxazol-5-yl)-2,4-pyrimidinediamine], the half-maximal inhibitory concentration (IC50) was under 500 nM.
